These results are taken from ChEMBL document CHEMBL1201862, “PubChem BioAssay data set” (2004).

SMILES strings stand for the structures. Activity calls are given as the source filed them.

A short description of data set [1]: Trypanosoma cruzi growth suppression in host cells – NIH3T3 host cells, beta-gal luminescence, confirmation (AID 2044).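 Note: intracellular parasites grown in NIH/3T3 mouse fibroblasts as host cells; luminescent beta-galactosidase reporter signal from transgenic T. cruzi replicating inside host cells; inhibitors lower the luminescence signal.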 Type of data set: functional, cell-based.
Data set [2] is described as follows: NIH3T3 cell viability loss – ATP luminescence, mouse fibroblasts, counter-screen, dose response (AID 2010).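 Note: cells exposed to compound for about 90 hours before reading.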 It is filed as functional, cell-based. Background: A counterscreen serves to expose hits that act by an unwanted route or on another target.
The target in data set [3] is Induced myeloid leukemia cell differentiation protein Mcl-1 (Homo sapiens, UniProt Q07820). Type of data set: functional.
Induced myeloid leukemia cell differentiation protein Mcl-1, sequence (Q07820 whole entry): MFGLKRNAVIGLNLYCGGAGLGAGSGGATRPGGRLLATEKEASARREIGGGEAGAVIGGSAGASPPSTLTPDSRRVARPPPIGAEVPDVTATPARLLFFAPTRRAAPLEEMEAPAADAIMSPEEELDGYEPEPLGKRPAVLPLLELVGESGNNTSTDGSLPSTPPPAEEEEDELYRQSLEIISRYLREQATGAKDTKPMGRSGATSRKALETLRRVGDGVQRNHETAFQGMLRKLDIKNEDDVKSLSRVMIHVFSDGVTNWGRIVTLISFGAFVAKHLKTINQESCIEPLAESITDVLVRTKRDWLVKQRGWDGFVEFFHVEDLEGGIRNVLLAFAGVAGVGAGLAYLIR
Data set [4] is described as follows: Luminescence Cell-Based Dose Retest to Confirm Inhibitors of Cancer Stem Cells. [Related pubchem assays (depositor defined):AID2717, AID2721]. Type of data set: functional. The following applies: Homo sapiens.
For data set [5], the target named is T1, Heat shock factor protein 1 (Mus musculus, UniProt P38532).
T1 sequence (P38532 whole entry): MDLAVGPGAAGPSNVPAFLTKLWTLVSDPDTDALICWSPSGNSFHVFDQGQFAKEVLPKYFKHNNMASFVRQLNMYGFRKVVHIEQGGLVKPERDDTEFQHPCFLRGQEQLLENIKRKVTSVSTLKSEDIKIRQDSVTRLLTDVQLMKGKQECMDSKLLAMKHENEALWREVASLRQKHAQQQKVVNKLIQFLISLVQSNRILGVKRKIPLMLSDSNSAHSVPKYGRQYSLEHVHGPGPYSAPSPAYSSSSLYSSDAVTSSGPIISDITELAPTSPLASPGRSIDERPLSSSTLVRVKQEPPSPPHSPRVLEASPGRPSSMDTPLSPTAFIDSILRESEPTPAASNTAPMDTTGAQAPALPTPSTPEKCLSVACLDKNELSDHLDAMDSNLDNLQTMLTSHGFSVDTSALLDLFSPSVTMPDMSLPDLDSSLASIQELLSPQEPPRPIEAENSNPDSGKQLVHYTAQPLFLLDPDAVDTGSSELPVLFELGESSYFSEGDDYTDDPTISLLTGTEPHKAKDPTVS
In words: enhancement of HSF1-driven luciferase signal – cell-based, NIH3T3, luminescence, dose retest, confirmation (AID 435004).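 Note: stress induced by proteasome inhibitor MG132 added 30 min after compound; luciferase reporter driven by HSF1 response element in NIH3T3 cells; actives raise luminescence as potentiators of the MG132 stress response.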 Type of data set: functional.

Another data set concerns Vero. Briefly: cells. It is filed as functional. Conditions: Chlorocebus sabaeus.
In another data set the target is T2, Protein skinhead-1 (Caenorhabditis elegans, UniProt P34707).
T2 sequence (P34707 whole entry): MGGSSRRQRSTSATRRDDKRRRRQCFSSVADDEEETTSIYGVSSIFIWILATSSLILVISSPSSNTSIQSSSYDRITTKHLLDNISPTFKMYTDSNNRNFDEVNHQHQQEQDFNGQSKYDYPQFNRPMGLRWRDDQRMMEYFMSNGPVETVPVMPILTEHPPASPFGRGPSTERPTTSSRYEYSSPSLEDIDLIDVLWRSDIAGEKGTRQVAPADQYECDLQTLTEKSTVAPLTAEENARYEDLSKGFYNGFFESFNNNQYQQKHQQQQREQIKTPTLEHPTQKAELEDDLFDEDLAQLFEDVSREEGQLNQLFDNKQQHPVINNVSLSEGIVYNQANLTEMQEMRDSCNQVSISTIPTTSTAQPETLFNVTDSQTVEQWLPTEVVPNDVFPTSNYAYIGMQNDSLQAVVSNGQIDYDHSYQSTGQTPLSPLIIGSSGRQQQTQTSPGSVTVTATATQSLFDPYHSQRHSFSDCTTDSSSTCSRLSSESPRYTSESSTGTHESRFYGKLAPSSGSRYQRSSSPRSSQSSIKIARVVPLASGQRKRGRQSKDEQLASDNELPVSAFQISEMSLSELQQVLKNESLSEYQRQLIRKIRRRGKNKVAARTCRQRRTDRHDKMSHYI
It is filed as functional.

Data set [6] concerns the target T3, Carboxy-terminal domain RNA polymerase II polypeptide A small phosphatase 1 (Homo sapiens, UniProt Q9GZU7).
T3 sequence (Q9GZU7 whole entry): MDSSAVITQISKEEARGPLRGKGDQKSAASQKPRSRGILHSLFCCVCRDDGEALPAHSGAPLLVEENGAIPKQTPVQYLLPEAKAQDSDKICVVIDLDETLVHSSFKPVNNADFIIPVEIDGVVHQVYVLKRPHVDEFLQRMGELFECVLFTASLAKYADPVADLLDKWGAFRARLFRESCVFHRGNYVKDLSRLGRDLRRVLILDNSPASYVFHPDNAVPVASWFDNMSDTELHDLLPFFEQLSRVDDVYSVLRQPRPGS
In words: CTDSP1 inhibitors, concentration-response, biochemical, absorbance readout, ultra-high-throughput screen actives (AID 540297). Type of data set: functional.

The next data set has as its target Cytochrome P450 3A4 (Homo sapiens, UniProt P08684).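 Note: CYP3A4 tested as one member of a cytochrome P450 panel screen.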
In a further data set the target is Cytochrome P450 2C9 (Homo sapiens, UniProt P11712).
Cytochrome P450 2C9, sequence (P11712 whole entry): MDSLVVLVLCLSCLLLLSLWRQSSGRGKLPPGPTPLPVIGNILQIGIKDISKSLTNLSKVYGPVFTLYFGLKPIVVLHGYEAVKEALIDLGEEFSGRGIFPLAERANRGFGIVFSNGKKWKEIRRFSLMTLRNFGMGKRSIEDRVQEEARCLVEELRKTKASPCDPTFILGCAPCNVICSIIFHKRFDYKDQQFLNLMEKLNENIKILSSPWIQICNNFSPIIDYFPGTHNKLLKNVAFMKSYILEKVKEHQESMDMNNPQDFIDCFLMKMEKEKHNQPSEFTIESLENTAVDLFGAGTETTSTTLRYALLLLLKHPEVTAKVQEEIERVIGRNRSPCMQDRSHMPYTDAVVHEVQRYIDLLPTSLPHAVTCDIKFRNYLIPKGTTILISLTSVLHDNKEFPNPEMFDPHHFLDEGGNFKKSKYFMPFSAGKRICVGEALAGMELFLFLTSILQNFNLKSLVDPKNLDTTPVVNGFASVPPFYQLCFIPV
In data set [7] the target is T4, Fatty acid synthase (Homo sapiens, UniProt P49327). In words: inhibition of human FAS-TE enzyme activity – biochemical, endpoint fluorescence intensity, uHTS hits, dose response (AID 624327).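 Note: fluorescence from hydrolysis of an O-methyl fluorescein acyl ester substrate by the enzyme.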 Type of data set: functional.
T4 sequence (P49327 whole entry): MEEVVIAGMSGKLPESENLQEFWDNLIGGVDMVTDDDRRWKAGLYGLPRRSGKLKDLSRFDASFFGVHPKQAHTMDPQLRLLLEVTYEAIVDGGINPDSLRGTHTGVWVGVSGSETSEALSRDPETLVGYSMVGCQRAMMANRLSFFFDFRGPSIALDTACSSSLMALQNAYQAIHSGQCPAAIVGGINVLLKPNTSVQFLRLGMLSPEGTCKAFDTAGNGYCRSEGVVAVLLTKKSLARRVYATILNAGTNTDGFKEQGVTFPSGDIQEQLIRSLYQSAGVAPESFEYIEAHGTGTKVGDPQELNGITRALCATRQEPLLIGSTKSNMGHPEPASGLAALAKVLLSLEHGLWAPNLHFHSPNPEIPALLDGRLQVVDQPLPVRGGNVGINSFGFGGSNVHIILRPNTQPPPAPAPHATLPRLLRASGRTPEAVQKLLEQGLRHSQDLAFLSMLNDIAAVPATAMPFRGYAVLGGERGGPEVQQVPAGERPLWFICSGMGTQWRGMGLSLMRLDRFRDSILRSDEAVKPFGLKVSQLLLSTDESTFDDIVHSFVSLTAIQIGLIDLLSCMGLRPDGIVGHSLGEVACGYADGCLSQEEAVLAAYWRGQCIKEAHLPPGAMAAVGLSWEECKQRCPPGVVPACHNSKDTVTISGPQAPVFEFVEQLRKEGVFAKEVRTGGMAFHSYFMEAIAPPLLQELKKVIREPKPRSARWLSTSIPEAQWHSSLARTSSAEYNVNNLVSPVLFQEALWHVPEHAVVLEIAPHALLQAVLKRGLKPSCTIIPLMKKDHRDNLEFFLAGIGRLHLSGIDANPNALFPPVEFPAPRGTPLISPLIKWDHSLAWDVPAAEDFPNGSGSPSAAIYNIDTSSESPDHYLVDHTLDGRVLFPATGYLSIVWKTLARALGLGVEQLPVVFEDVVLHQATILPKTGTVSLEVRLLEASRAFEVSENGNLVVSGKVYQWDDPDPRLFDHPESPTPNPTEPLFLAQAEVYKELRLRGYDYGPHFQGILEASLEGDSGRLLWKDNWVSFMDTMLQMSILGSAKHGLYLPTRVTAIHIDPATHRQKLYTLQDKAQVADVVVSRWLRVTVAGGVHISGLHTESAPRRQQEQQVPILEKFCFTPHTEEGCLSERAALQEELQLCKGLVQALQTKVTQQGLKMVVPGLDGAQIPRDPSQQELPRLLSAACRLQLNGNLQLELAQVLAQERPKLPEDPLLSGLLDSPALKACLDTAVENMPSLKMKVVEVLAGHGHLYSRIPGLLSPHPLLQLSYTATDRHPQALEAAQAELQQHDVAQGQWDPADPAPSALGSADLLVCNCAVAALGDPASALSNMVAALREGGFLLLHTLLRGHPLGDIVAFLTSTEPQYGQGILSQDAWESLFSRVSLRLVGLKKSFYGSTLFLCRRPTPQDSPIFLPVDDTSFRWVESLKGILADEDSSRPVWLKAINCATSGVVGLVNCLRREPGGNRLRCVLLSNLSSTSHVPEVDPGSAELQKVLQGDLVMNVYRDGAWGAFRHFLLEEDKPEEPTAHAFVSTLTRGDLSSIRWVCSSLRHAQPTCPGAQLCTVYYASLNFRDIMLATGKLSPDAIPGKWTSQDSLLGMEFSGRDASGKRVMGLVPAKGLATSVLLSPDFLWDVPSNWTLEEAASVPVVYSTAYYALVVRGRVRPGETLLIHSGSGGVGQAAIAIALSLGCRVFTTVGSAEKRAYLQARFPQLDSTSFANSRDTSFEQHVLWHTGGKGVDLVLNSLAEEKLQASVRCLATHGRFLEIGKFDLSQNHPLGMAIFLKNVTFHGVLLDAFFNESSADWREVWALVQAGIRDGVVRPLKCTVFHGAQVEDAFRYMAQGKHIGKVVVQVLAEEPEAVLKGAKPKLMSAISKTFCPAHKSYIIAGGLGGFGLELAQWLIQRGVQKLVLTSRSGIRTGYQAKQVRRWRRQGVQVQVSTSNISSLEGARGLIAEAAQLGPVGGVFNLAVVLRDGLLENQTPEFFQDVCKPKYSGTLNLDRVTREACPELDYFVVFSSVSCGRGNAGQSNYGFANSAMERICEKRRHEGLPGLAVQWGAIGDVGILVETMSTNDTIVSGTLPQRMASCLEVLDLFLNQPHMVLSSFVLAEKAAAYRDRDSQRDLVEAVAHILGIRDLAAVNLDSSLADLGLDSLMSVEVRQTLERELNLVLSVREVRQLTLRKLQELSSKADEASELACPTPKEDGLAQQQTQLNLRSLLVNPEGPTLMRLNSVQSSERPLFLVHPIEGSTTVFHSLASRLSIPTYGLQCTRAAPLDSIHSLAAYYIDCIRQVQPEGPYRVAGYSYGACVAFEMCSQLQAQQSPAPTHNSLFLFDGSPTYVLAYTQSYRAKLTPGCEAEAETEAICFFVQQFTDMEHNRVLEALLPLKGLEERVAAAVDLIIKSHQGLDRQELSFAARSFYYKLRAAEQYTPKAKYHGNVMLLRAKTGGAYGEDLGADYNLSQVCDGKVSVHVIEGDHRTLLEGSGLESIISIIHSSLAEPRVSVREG
The target in data set [8] is T4, Fatty acid synthase. In words: inhibition of human FAS-TE enzyme activity – biochemical, kinetic fluorescence intensity, dose response (AID 624326).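 Note: rate of fluorescence rise from hydrolysis of a fluorogenic O-methyl fluorescein ester substrate.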 It is filed as functional.
The nature of data set [9]: Luminescence Cell-Based Dose Response HTS to Identify Activators of Luciferase Translation or Activity in H4 […] Cells. [Related pubchem assays: 1829 (Project Summary), 1814 (Primary HTS)]. It is filed as functional.
The test system of data set [10] is Streptococcus sp. 'group A'. Briefly: Streptococcus pyogenes SK(-)GAS viability under kanamycin – luminescence, BacTiterGlo, confirmation, counter-screen for streptokinase expression inhibitor project, dose response (AID 1900). Type of data set: functional, organism-based.
A further data set has as its system H4. In words: Luminescence Cell-Based Dose Response HTS to Identify Activators of 5'UTR Stem-Loop Driven Prion Protein mRNA Translation in H4 Neuroglioblastoma Cells. [Related pubchem assays: 1829 (Project Summary), 1814 (Primary HTS)]. Conditions: Homo sapiens. It is filed as functional.
The next data set concerns the target T5, Streptokinase A (Streptococcus pyogenes serotype M1, UniProt P10520).
T5 sequence (P10520 whole entry): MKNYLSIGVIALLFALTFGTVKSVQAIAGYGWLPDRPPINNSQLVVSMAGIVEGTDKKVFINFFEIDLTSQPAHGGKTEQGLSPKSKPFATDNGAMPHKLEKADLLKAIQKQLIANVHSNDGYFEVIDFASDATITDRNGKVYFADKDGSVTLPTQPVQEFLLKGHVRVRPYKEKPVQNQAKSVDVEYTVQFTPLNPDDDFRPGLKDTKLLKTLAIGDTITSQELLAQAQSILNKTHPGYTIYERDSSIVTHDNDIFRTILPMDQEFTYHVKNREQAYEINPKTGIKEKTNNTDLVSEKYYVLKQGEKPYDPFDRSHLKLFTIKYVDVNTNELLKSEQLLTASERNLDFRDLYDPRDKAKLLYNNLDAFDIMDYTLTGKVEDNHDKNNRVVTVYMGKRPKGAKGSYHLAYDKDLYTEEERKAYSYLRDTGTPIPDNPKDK
In words: viability-normalized secreted streptokinase activity reduction – plasminogen activation absorbance, OD405, dose response (AID 1914).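 Note: secreted streptokinase activity via plasminogen activation per viability signal from cell pellet.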 Type of data set: functional, Streptococcus pyogenes M1 GAS.

In the next data set the test system is Streptococcus. In words: GAS UMAA2166 growth inhibition – luminescence, BacTiterGlo, counter-screen for streptokinase expression inhibitor project, dose response (AID 1915).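 Note: potency for reduction of bacterial viability or growth.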 Type of data set: functional, organism-based.
The nature of data set [11]: viability of uninfected HEp-2 cells – cell-based, HTS, cytotoxicity control for RSV inhibitor project, dose response (AID 2410). It is filed as functional. The following applies: human respiratory syncytial virus.
Data set [12] can be described thus: viability of PTEN-deleted HCT116 cells – cell-based, HCT116 PTEN knockout, dose response (AID 1047).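 Note: HCT116 colon tumor cells with PTEN knocked out; cells exposed to compound for 60 hours before readout; potency for loss of cell viability measured by luminescence.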 Type of data set: functional.
The nature of data set [13]: viability of HCT116 lacking mutant beta-catenin – cell-based, human colon tumor, dose response (AID 1045).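 Note: HCT116 colon tumor cells with beta catenin knocked out; cells exposed to compound for 60 hours.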 Type of data set: functional.
The target of a further data set is T6, Cytochrome P450 1A2 (Homo sapiens, UniProt P05177).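 Note: PubChem cytochrome P450 panel assay, CYP1A2 panel member.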
T6 sequence (P05177 whole entry): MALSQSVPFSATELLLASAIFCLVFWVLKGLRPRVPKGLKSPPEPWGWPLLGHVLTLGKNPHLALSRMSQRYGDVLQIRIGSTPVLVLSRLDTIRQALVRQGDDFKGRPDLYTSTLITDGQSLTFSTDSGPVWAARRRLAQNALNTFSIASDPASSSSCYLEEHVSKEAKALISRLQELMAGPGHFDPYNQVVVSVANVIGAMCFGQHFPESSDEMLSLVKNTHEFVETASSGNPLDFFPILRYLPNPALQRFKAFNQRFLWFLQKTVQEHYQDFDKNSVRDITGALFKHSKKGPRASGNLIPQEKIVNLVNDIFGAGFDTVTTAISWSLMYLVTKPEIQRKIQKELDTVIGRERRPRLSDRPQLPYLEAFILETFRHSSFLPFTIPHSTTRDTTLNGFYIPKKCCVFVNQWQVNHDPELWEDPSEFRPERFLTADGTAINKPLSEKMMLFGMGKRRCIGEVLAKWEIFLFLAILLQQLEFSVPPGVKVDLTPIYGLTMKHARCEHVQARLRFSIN

A further data set has as its target Cytochrome P450 2C19 (Homo sapiens, UniProt P33261). In words: Cytochrome panel assay with activity outcomes. Panel member name: p450-cyp2c19 Compounds with AC50 equal or less than 10 uM are considered active. Type of data set: functional. Conditions: read-out: AC50.
A further data set has as its target Cytochrome P450 2D6 (Homo sapiens, UniProt P10635).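 Note: CYP2D6 member of a cytochrome P450 panel assay.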

Cytochrome P450 3A4, sequence (P08684 whole entry): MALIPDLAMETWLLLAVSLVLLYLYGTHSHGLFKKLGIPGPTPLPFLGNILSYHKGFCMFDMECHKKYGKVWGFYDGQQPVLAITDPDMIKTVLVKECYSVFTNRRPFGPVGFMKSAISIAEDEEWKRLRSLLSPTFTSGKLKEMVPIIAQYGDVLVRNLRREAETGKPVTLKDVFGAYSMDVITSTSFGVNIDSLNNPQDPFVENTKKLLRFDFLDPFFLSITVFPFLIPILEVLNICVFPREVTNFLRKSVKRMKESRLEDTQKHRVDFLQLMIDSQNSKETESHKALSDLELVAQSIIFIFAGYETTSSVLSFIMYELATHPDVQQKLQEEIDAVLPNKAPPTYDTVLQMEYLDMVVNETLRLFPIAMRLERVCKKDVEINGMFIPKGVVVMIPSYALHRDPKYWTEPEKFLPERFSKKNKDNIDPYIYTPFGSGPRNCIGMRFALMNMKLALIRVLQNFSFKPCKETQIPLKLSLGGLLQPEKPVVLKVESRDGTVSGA
Cytochrome P450 2C19, sequence (P33261 whole entry): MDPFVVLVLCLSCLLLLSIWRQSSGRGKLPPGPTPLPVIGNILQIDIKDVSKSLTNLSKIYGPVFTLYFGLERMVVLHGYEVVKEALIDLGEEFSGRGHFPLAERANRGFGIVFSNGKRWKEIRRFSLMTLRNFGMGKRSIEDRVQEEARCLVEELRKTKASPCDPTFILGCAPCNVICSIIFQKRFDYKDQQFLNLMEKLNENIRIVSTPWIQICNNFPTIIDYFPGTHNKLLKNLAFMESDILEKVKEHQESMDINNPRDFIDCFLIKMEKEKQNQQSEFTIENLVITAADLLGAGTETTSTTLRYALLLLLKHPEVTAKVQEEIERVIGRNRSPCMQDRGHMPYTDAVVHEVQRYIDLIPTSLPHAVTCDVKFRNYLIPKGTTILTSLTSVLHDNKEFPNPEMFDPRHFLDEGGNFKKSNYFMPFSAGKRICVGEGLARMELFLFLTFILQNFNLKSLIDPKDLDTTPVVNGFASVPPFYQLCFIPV
Cytochrome P450 2D6, sequence (P10635 whole entry): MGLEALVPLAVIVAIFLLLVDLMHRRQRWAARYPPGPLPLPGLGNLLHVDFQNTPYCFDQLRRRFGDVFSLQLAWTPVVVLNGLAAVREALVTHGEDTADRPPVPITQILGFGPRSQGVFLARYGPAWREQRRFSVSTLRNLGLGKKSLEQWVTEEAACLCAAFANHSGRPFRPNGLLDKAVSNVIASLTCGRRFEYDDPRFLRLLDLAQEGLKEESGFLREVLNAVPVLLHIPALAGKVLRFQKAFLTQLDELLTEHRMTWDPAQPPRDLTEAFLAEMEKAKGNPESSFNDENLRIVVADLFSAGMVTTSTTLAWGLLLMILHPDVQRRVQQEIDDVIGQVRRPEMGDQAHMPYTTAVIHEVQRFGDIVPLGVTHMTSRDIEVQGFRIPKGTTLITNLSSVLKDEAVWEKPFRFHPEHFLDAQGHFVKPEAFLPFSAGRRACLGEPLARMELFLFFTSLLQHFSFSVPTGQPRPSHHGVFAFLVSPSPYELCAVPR

In general, EC50 refers to the midpoint of the concentration-response curve. The term IC50 denotes the midpoint of a concentration-inhibition curve. Usually AC50 stands for the concentration at which the activity in the assay is half-maximal. The term CC50 denotes the concentration giving 50% cytotoxicity. For the molecule `CCC1CSC(Nc2ccc(C(=O)/C=C/c3cccc(C)c3)cc2)=N1` (stereo not given), the figures for the EC50 in data set [1], in data set [2] and in data set [5] were 3.06 µM (active), > 60 µM (not active) and 12.9 µM (active), respectively. Also, the IC50 in data set [3] is 1.66 µM (active); on Protein skinhead-1, > 100 µM (inactive). Besides, the AC50 in data set [4] is 5.77 µM (active). Besides, the half-maximal cytotoxic concentration (CC50) in the data set on Vero is > 25 µM (active).

Turning to `Cc1c(Cl)cnc(NC(=O)COC(=O)c2ccc(S(=O)(=O)NCc3ccco3)cc2)c1Cl`, in [6], the IC50 is 8.67 µM (active).

Take `COc1ccc(CC(=O)N2CCCC(C)C2)cc1` (stereo not given): the IC50 on Protein skinhead-1 was > 100 µM (inactive).

For the molecule `Cc1ccc2[nH]c(/C(C#N)=C\c3ccc(Oc4ccc(C(F)(F)F)cc4[N+](=O)[O-])cc3)nc2c1`, the IC50 in data set [6] is 2.42 µM (active).

In the case of `O=C(Oc1ccc(C(=S)N2CCOCC2)cc1Br)c1cc(Cl)ccc1Cl`, the EC50 in data set [5] was 68.8 µM (active). For the same molecule, the AC50 on Cytochrome P450 3A4 is 12.6 µM (inconclusive); on Cytochrome P450 2C9 it was “inconclusive”.

Take `O=C(C1CCN(S(=O)(=O)c2c(Cl)cccc2Cl)CC1)N1CCCC1`: the IC50 at Protein skinhead-1 is > 100 µM (inactive).

On to `O=C(/C=C/c1cccc([N+](=O)[O-])c1)N1CCN(c2ccccc2F)CC1`, for which the concentration for half-maximal inhibition (IC50) was 11.6 µM (active) on Fatty acid synthase [7] and 6.52 µM (active) on Fatty acid synthase [8].

For the molecule `COc1ccc(N(C(=O)CNC(=O)c2ccco2)C(C(=O)NC2CCCCC2)c2cccnc2)cc1` (stereo not given), the IC50 at Protein skinhead-1 is > 100 µM (inactive).

In the case of `CCOc1c(OC(C)=O)ccc(/C=C/c2ccc3cccc(OC(C)=O)c3n2)c1[N+](=O)[O-]`, the EC50 in data set [9] was 8.52 µM (active); in data set [10], 1.49 µM (active); in the data set with H4, 8.07 µM (active); on Streptokinase A, > 150 µM (not active); with Streptococcus it was 8.24 µM (active). Further, the half-maximal activity concentration (AC50) result on Cytochrome P450 2C9 is reported as “inconclusive”.

Take `COc1ccc2cc3cc(C(=O)N4CCCCCC4)oc3nc2c1`: the IC50 was 3.92 µM (active) on Fatty acid synthase [7] and 3.37 µM (active) on Fatty acid synthase [8].

In the case of `O=C(O)/C(=C/c1ccco1)NC(=O)c1ccccc1`, the IC50 in data set [6] was 6.04 µM (active).

Consider `CCCCOc1ccc(-c2c(C#N)c(N)nc(SCC(N)=O)c2C#N)cc1`, for which the 50% cytotoxic concentration (CC50) in data set [11] was 19.9 µM (active). For the same molecule, the EC50 in data set [10] is 6.77 µM (active); on Streptokinase A, > 150 µM (not active); in data set [12] it was 15.8 µM (active); in data set [13], 21.2 µM (active); in the data set with Streptococcus, > 150 µM (not active). Moreover, the results for the IC50 at Fatty acid synthase [7] and on Fatty acid synthase [8] were 1.12 µM (active) and 0.644 µM (active), respectively.

For `CC(C)(C)c1ccc2c(c1)OC(C(=O)N/N=C/c1ccc([N+](=O)[O-])o1)CO2` (stereo not given), the concentration for a half-maximal effect (EC50) is 5.27 µM (active) in [10]; 5.82 µM (active) on Streptokinase A; 0.102 µM (active) in data set [1]; > 60 µM (not active) in data set [2]; 10.3 µM (active) in the data set with Streptococcus. Moreover, the CC50 with Vero was > 25 µM (active). In data set [6], the IC50 was 5.41 µM (active).

In the case of `Cc1[nH]n(-c2ccccc2)c(=O)c1CCOC(=O)c1ccc(C(F)(F)F)cc1`, the values for the AC50 at Cytochrome P450 1A2 and at Cytochrome P450 2C9 were 15.8 µM (inconclusive) and “inconclusive”, respectively.

Consider `CCOC(=O)c1cc2c(=O)n3ccccc3nc2n(Cc2ccco2)/c1=N/C(=O)c1ccc(OC)cc1`, for which the half-inhibitory concentration (IC50) is 14.6 µM (active) on Fatty acid synthase [7] and 80 µM (inactive) on Fatty acid synthase [8].

In the case of `Cc1ccc(/C=N/NC(=O)C2CCN(Cc3ccc(F)cc3Cl)CC2)o1`, the concentration at half-maximal activity (AC50) was 31.6 µM (inconclusive) at Cytochrome P450 2C19, 35.5 µM (inconclusive) at Cytochrome P450 2D6, 5.01 µM (inconclusive) on Cytochrome P450 3A4 and “inconclusive” at Cytochrome P450 2C9.

With `O=c1c2ccccc2sc2ccccc12`, the IC50 at Protein skinhead-1 was 59.3 µM (inactive).
